From US20250263404A1, “AMINOPYRIDINES AS ACTIVATORS OF PI3 KINASE” (UCL Business Ltd, priority 2021, published 2025)

Target: PI3Kα (Homo sapiens, UniProt P42336)
Assay: pAKT S473 ELISA in A549 cells (PI3Kα activation)
Type: cell-based
Design: endogenous in cells; host or cells: A549
Conditions: for EC50: A549 cells, 15 min treatment, pAKT S473 ELISA, normalised to Emax of 1 μM insulin, read-out: Av EC50; for Emax at 10 µM: A549, 0.25 h, read-out: <50% response at 10 μM
Experimental: EC50 values were determined by quantifying phosphorylation on S473 residues of Akt in A549 human adenocarcinoma cells by ELISA (enzyme linked immunoadsorbent assay, R&D Systems, DYC887BE). A549 cells were seeded into 96-well plates (50,000 cells/well) in DMEM supplemented with 10% foetal bovine serum and 1% penicillin-streptomyocin. Following 24 h in culture cells were starved for 24 h in serum-free DMEM before 15 minute treatment with a concentration response curve of compounds. Experimental compounds were diluted in DMSO into […] 1:3 concentration response curves in polypropylene V-bottom plates (SLS MIC9050). Concentration response curves were diluted to a 3× stock in serum-free DMEM. Standard 8-point concentration response curves were performed at 50, 16.7, 5.6, 1.9, 0.6, 0.2, 0.07, 0.02 μM and serum-free DMEM containing 0.5% DMSO was used as a negative control. […] A549 cells were seeded at 50,000 cells per well in 96-well plates in DMEM (10% FBS+1% P/S). The next day cells were washed once with PBS before addition of serum-free DMEM for 24 h. On the day of treatment cells, were incubated in fresh serum-free DMEM prior to treatment. Compounds solubilised to 10 mM in DMSO were diluted 1:3 in an 8-point concentration response curve in DMSO. Concentration response curves were diluted in serum-free DMEM by transfer into intermediate plates using a BRAVO liquid handler (Agilent). Intermediate plates were then used to treat cell plates using the BRAVO liquid handler. Compound concentration response curves had atop concentration of 50 μM and a final well concentration of 0.5% DMSO. Cell plates were treated for 15 min at 37° C., 5% CO2 before being washed with ice-cold PBS and lysed in lysis buffer 6 (R&D Systems #895561) and freezing at −80° C. Levels of pAKT-S473 were determined using the phospho-AKT (S473) pan-specific Duoset IC ELISA (R&D Systems #DYC887BE) in 96-well white high-binding plates (Corning #3922) according to manufacturer's instructions. Endpoint luminescence was measured using a Sense (Hidex) platereader. […] Data were transformed and EC50 data were determined by variable slope (4 parameters) non-linear regression using Prism 7 (Graphpad).

Sequence of PI3Kα (P42336 whole entry): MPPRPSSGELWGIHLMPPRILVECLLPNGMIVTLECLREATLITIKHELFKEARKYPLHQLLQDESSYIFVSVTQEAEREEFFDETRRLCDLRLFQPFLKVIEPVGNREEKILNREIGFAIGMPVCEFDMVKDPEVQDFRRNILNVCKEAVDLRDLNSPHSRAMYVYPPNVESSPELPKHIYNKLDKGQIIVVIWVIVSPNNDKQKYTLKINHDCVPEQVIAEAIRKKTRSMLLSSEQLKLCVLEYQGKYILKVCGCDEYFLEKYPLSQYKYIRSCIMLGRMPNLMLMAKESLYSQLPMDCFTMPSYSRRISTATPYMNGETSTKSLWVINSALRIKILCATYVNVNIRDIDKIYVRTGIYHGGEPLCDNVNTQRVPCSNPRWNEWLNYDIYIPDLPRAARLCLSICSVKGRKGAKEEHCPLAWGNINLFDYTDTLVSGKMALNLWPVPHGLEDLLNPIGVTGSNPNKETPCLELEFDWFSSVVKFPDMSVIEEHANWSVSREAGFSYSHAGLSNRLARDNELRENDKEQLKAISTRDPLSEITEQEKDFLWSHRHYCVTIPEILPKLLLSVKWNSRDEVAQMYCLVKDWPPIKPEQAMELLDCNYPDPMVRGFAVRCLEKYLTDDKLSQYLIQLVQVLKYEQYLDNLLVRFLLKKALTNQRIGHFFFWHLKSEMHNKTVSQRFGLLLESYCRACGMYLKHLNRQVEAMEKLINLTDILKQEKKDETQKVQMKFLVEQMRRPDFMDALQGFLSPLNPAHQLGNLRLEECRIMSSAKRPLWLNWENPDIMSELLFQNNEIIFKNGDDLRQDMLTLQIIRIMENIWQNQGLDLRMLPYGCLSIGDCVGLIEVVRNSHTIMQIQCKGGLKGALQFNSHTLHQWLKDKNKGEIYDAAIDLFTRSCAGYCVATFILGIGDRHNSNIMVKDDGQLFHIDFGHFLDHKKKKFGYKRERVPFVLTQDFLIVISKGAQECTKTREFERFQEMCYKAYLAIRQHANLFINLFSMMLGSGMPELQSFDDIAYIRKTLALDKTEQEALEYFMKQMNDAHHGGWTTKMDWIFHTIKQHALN
Sequence of PI3Kα (P27986 whole entry partner): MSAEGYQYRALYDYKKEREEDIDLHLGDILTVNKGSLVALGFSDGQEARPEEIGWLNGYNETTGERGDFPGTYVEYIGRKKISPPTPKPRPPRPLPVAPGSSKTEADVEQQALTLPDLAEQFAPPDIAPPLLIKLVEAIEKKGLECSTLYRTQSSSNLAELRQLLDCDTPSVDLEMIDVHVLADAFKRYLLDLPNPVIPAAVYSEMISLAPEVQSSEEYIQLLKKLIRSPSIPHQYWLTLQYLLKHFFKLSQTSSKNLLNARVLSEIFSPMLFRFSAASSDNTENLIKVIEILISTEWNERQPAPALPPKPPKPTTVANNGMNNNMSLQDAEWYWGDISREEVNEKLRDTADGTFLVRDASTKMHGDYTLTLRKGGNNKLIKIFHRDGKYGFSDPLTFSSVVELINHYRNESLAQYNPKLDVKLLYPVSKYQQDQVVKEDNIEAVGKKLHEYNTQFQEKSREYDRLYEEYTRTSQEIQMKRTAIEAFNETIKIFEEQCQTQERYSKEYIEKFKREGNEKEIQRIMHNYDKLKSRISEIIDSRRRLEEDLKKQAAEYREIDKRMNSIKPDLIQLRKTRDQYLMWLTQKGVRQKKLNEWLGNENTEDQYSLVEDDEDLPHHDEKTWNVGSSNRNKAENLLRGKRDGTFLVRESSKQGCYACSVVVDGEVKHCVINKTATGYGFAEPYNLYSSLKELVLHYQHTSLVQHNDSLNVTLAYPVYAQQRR

## COCCN1CCN(c2ccc(Nc3cc(Nc4cccc5c4N(C(C)=O)CC5)ccn3)c(OC)c2)CC1 [27 (1994)]
  EC50: 1.3 µM

## COc1cc(N2CCN(C)CC2)ccc1Nc1cc(Nc2cc(-c3ccccc3)nn2C)ccn1 [28 (1995)]
  Emax at 10 µM: < 50%
  EC50: 1.41 µM

## CCOc1cc(N2CCN(C)CC2)ccc1Nc1cc(Nc2cccc3c2N(C(C)=O)CC3)ccn1 [31 (2007)]
  EC50: 1.55 µM

## COc1ccccc1Nc1cc(Nc2cccc3c2N(C(C)=O)CC3)ccn1 [99 (2356)]
  Emax at 10 µM: < 50%
  EC50: 4.78 µM

## CC(=O)N1CCc2cccc(Nc3ccnc(Nc4ccc(N5CCN(C)CC5)cc4)c3)c21 [11 (1937)]
  EC50: 2.64 µM

## CC(=O)N1CCc2cc(Nc3cc(Nc4cc(C(C)C)nn4C)ccn3)ccc21 [85 (2110)]
  Emax at 10 µM: < 50%
  EC50: > 27.2 µM

## CC(=O)N1CCc2cccc(Nc3ccnc(Nc4ccccc4)c3)c21 [39 (2016)]
  EC50: > 50 µM

## CNC(=O)c1ccc(Nc2ccnc(Nc3ccc(N4CCN(C)CC4)cc3OC)c2)cc1 [61 (2055)]
  EC50: 2.61 µM

## CC(=O)N1CCc2cccc(Nc3ccnc(Nc4cccc(NS(C)(=O)=O)c4)c3)c21 [101 (2358)]
  EC50: > 50 µM

## COc1cc(N2CCN(C)CC2)ccc1Nc1cc(Nc2cc(C(C)C)nn2C)ccn1 [30 (2000)]
  EC50: 4.89 µM

## COc1cc(N2CCN(C)CC2)ccc1Nc1cc(Nc2cccc3c2N(C(C)=O)CC3)cc(C)n1 [10 (1936)]
  Emax at 10 µM: < 50%
  EC50: 5.36 µM

## CCN1CCN(c2ccc(Nc3cc(Nc4cc(C(C)C)nn4C)ccn3)cc2)CC1 [77 (2103)]
  EC50: 2.09 µM

## CCN1CCN(c2ccc(Nc3cc(Nc4cccc(C(=O)NC)c4)ccn3)cc2)CC1 [78 (2104)]
  EC50: 1.98 µM

## CC(=O)N1CCc2cccc(Nc3ccnc(Nc4ccc5ccccc5n4)c3)c21 [43 (2020)]
  EC50: > 50 µM

## COc1cc(N2CCN(C)CC2)ccc1Nc1cc(Nc2cc(C)cc3c2N(C(C)=O)CC3)ccn1 [19 (1958)]
  EC50: 1.01 µM

## CC(=O)N1CCc2cccc(Nc3ccnc(Nc4ccc(N5CCOCC5)cc4C)c3)c21 [94 (2350)]
  EC50: 4.56 µM

## CCN1CCN(c2ccc(Nc3cc(Nc4cc(C(C)(C)C)nn4C)ccn3)cc2)CC1 [76 (2102)]
  EC50: 2.2 µM

## CC(=O)N1CCc2cccc(Nc3ccnc(Nc4ccc(N5CCOCC5)cc4)c3)c21 [38 (2015)]
  EC50: 1.32 µM

## COc1cc(N2CCN(C)CC2)ccc1Nc1cc(Nc2ccnc3ccccc23)ccn1 [50 (2029)]
  EC50: 1.36 µM

## COc1cc(N2CCN(C)CC2)ccc1Nc1cc(Nc2ccncn2)ccn1 [53 (2039)]
  EC50: 7.85 µM

## COc1cc(N2CCN(C)CC2)ccc1Nc1cc(Nc2cccc(-n3cnnc3)c2)ccn1 [66 (2064)]
  EC50: 17.3 µM

## COc1cc(N2CCCCC2)ccc1Nc1cc(Nc2cccc3c2N(C(C)=O)CC3)ccn1 [13 (1941)]
  EC50: 4.38 µM

## CNC(=O)c1ccc(Nc2cc(Nc3cccc4c3N(C(C)=O)CC4)ccn2)c(OC)c1 [93 (2349)]
  EC50: 5.18 µM

## COc1cc(N2CCN(C)CC2)ccc1Nc1nccc(Nc2cccc3c2N(C(C)=O)CC3)c1F [18 (1951)]
  EC50: 3.08 µM

## COc1cc(N2CCN(C)CC2)ccc1Nc1cc(Nc2ncccc2C#N)ccn1 [67 (2066)]
  Emax at 10 µM: < 50%
  EC50: > 50 µM

## COc1cc(Nc2cc(Nc3cnn(C)c3)ccn2)cc(OC)c1OC [4 (1905)]
  Emax at 10 µM: < 50%
  EC50: 2.08 µM

## COc1cc(N2CCN(C)CC2)ccc1Nc1cc(Nc2ccn(C)n2)ccn1 [3 (1904)]
  EC50: 9.71 µM

## CC(=O)N1CCc2cccc(Nc3ccnc(Nc4cccc5ncccc45)c3)c21 [68 (2067)]
  EC50: 4 µM

## CC(=O)N1CCc2cc(Nc3cc(Nc4cc(C(C)(C)C)nn4C)ccn3)ccc21 [83 (2109)]
  Emax at 10 µM: < 50%
  EC50: 2.78 µM

## CC(=O)N1CCc2cccc(Nc3ccnc(Nc4ccc(C(=O)N(C)C)cc4)c3)c21 [75 (2101)]
  Emax at 10 µM: < 50%
  EC50: > 19 µM

## COc1cc(N2CCN(C)CC2)ccc1Nc1cc(Nc2ccc3ncccc3c2)ccn1 [57 (2047)]
  EC50: > 50 µM

## COc1cc(Nc2cc(Nc3ccccc3)ccn2)cc(OC)c1OC [1 (1902)]
  EC50: ≥ 50 µM
